In patent US20040076974A1, “Liver necrosis predictive genes” (priority 2002, published 2004):
Several values for one entry are separate records, joined by “and”; a condition that tells them apart may be missing. Equal values may be shown once. Read-outs that look alike come from different tables or passages of the source.

Columns and labels:
[1] = tested on: toxicologically relevant rat genes (rat CT array)
[2] = tested on: Sprague Dawley rats; conditions: rat; for Score (histopathology liver necrosis severity score): Sprague Dawley, 72 h; for Score (histopathology liver necrosis severity score) / Liver Necrosis: ip
Outline: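 Toxicity calls (necrosis present or absent at 72 h) and histopathology scores were correlated with tissue gene expression from Crl:CD Sprague Dawley rats. Animals, usually 3 treated with compound by i.p. route and 3 given vehicle, were killed at 6, 24 or 72 h and tissues frozen immediately in liquid nitrogen.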

[3] = 24 h, dose 1000, listed as APAP

Question: How did the “Aflatoxin B1 aldehyde reductase expression (treatment/control)” value ([1]; 24 h) turn out when `CC(=O)Nc1ccc(O)cc1` [acetaminophen] was run?
Answer: 3.687 and 4.607 and 5.763

Question: And the “3-hydroxyisobutyrate dehydrogenase expression (treatment/control)” value [1, 3]?
Answer: 0.8093 and 0.6875 and 0.5181

Question: What about the “14-3-3 zeta expression (treatment/control)” value [1, 3] of the same molecule?
Answer: 1.279 and 1.34 and 2.193

Question: What about the “25-DX expression (treatment/control)” value [1, 3] of the same molecule?
Answer: 1.304 and 1.667 and 1.897

Question: What about the “60S ribosomal protein L6 expression (treatment/control)” value [1, 3] of the same molecule?
Answer: 1.31 and 2.123 and 2.39

Question: And the “Alpha 1 - inhibitor III expression (treatment/control)” value [1, 3]?
Answer: 0.4712 and 0.4696 and 0.2941

Question: And the “Alpha-2-macroglobulin expression (treatment/control)” value [1, 3]?
Answer: 0.5487 and 0.4873 and 0.3551

Question: And the “Apolipoprotein CIII expression (treatment/control)” value [1, 3]?
Answer: 0.702 and 0.753 and 0.464

Question: What about the “Bax (alpha) expression (treatment/control)” value [1, 3] of the same molecule?
Answer: 1.285 and 1.306 and 1.621

Question: What about the “Calpactin I heavy chain expression (treatment/control)” value [1, 3] of the same molecule?
Answer: 1.347 and 1.282 and 1.692

Question: What about the “Carbamyl phosphate synthetase I expression (treatment/control)” value [1, 3] of the same molecule?
Answer: 0.7736 and 0.7076 and 0.6953

Question: And the “Carbonyl reductase expression (treatment/control)” value [1, 3]?
Answer: 1.218 and 1.144 and 1.992

Question: And the “Cofilin expression (treatment/control)” value [1, 3]?
Answer: 0.9081 and 0.9679 and 1.261

Question: What about the “DNA polymerase beta expression (treatment/control)” value [1, 3] of the same molecule?
Answer: 0.8811 and 1.223 and 1.54

Question: What about the “Elongation factor-1 alpha expression (treatment/control)” value [1, 3] of the same molecule?
Answer: 1.174 and 1.533 and 1.746

Question: And the “Endogenous retroviral sequence, 5′ and 3′ LTR expression (treatment/control)” value [1, 3]?
Answer: 1.114 and 1.112 and 1.648

Question: And the “Enolase alpha expression (treatment/control)” value [1, 3]?
Answer: 1.382 and 2.619 and 2.308

Question: What about the “Epidermal growth factor expression (treatment/control)” value [1, 3] of the same molecule?
Answer: 0.7557 and 0.7312 and 0.6935

Question: And the “Extracellular-signal-regulated kinase 1 expression (treatment/control)” value [1, 3]?
Answer: 0.452 and 0.4073 and 0.261

Question: What about the “Fas antigen expression (treatment/control)” value [1, 3] of the same molecule?
Answer: 1.77 and 1.618 and 2.162

Question: And the “Gadd153 expression (treatment/control)” value [1, 3]?
Answer: 1.15 and 1.234 and 2.2302

Question: What about the “Glucose-regulated protein 78 expression (treatment/control)” value [1, 3] of the same molecule?
Answer: 1.949 and 2.017 and 1.914

Question: And the “Hepatic lipase expression (treatment/control)” value [1, 3]?
Answer: 0.5231 and 0.4276 and 0.3047

Question: And the “ID-1 expression (treatment/control)” value [1, 3]?
Answer: 1.004 and 1.038 and 1.388

Question: What about the “IgE binding protein expression (treatment/control)” value [1, 3] of the same molecule?
Answer: 1.117 and 1.131 and 1.528

Question: What about the “IkB-a expression (treatment/control)” value [1, 3] of the same molecule?
Answer: 1.268 and 1.662 and 1.76

Question: What about the “Insulin-like growth factor binding protein 3 expression (treatment/control)” value [1, 3] of the same molecule?
Answer: 0.5707 and 0.5952 and 0.4059

Question: What about the “Liver fatty acid binding protein expression (treatment/control)” value [1, 3] of the same molecule?
Answer: 0.4243 and 0.4268 and 0.229

Question: What about the “MAP kinase kinase expression (treatment/control)” value [1, 3] of the same molecule?
Answer: 1.017 and 1.243 and 1.361

Question: And the “Macrophage inflammatory protein-1 alpha expression (treatment/control)” value [1, 3]?
Answer: 1.158 and 1.138 and 1.685

Question: And the “Matrix metalloproteinase-1 expression (treatment/control)” value [1, 3]?
Answer: 1.41 and 1.586 and 2.447

Question: What about the “Melanoma-associated antigen ME491 expression (treatment/control)” value [1, 3] of the same molecule?
Answer: 1.011 and 1.114 and 1.656

Question: What about the “Monocyte chemotactic protein receptor (CCR2) expression (treatment/control)” value [1, 3] of the same molecule?
Answer: 1.194 and 1.282 and 1.728

Question: What about the “NADPH quinone oxidoreductase-1 (DT-diaphorase) expression (treatment/control)” value [1, 3] of the same molecule?
Answer: 2.511 and 2.716 and 4.842

Question: And the “Nucleoside diphosphate kinase beta isoform expression (treatment/control)” value [1, 3]?
Answer: 1.516

Question: What about the “Organic anion transporter 3 expression (treatment/control)” value [1, 3] of the same molecule?
Answer: 0.7554 and 0.5816 and 0.5461

Question: And the “Organic cation transporter 3 expression (treatment/control)” value [1, 3]?
Answer: 1.215 and 1.663 and 2.064

Question: What about the “Ornithine decarboxylase expression (treatment/control)” value [1, 3] of the same molecule?
Answer: 1.918 and 2.163 and 3.092

Question: What about the “Phase-1 RCT 252 expression (treatment/control)” value [1, 3] of the same molecule?
Answer: 0.7905 and 0.6256

Question: What about the “Phase-1 RCT-12 expression (treatment/control)” value [1, 3] of the same molecule?
Answer: 1.884

Question: What about the “Phase-1 RCT-33 expression (treatment/control)” value [1, 3] of the same molecule?
Answer: 0.7278 and 0.4867

Question: And the “Phase-1 RCT-36 expression (treatment/control)” value [1, 3]?
Answer: 0.9342 and 0.7084

Question: What about the “Phase-1 RCT-37 expression (treatment/control)” value [1, 3] of the same molecule?
Answer: 1.525 and 1.704

Question: What about the “Phase-1 RCT-38 expression (treatment/control)” value [1, 3] of the same molecule?
Answer: 0.8079 and 0.6659 and 0.4284

Question: What about the “Phase-1 RCT-40 expression (treatment/control)” value [1, 3] of the same molecule?
Answer: 0.3766

Question: And the “Phase-1 RCT-48 expression (treatment/control)” value [1, 3]?
Answer: 0.6762 and 0.5881

Question: What about the “Phase-1 RCT-65 expression (treatment/control)” value [1, 3] of the same molecule?
Answer: 1.498

Question: And the “Phase-1 RCT-68 expression (treatment/control)” value [1, 3]?
Answer: 2.006

Question: And the “Phase-1 RCT-72 expression (treatment/control)” value [1, 3]?
Answer: 1.676

Question: And the “Phase-1 RCT-78 expression (treatment/control)” value [1, 3]?
Answer: 0.6314 and 0.4384

Question: And the “Phase-1 RCT-83 expression (treatment/control)” value [1, 3]?
Answer: 0.6151 and 0.4373 and 0.3263

Question: What about the “Phase-1 RCT-88 expression (treatment/control)” value [1, 3] of the same molecule?
Answer: 0.5934 and 0.6891 and 0.4014

Question: What about the “Phase-1 RCT-92 expression (treatment/control)” value [1, 3] of the same molecule?
Answer: 0.6478 and 0.6327 and 0.3995

Question: What about the “Phase-1 RCT-102 expression (treatment/control)” value [1, 3] of the same molecule?
Answer: 0.4854 and 0.3992 and 0.2737

Question: And the “Phase-1 RCT-109 expression (treatment/control)” value [1, 3]?
Answer: 2.054 and 2.291

Question: And the “Phase-1 RCT-123 expression (treatment/control)” value [1, 3]?
Answer: 0.983

Question: And the “Phase-1 RCT-127 expression (treatment/control)” value [1, 3]?
Answer: 0.99 and 1.472

Question: What about the “Phase-1 RCT-137 expression (treatment/control)” value [1, 3] of the same molecule?
Answer: 0.72 and 0.8264 and 0.5868

Question: What about the “Phase-1 RCT-145 expression (treatment/control)” value [1, 3] of the same molecule?
Answer: 1.2 and 1.522 and 2.335

Question: What about the “Phase-1 RCT-152 expression (treatment/control)” value [1, 3] of the same molecule?
Answer: 1.202 and 1.996 and 2.355

Question: What about the “Phase-1 RCT-154 expression (treatment/control)” value [1, 3] of the same molecule?
Answer: 2.226

Question: What about the “Phase-1 RCT-162 expression (treatment/control)” value [1, 3] of the same molecule?
Answer: 1.476

Question: And the “Phase-1 RCT-168 expression (treatment/control)” value [1, 3]?
Answer: 0.7401 and 0.471

Question: What about the “Phase-1 RCT-180 expression (treatment/control)” value [1, 3] of the same molecule?
Answer: 1.523 and 1.839

Question: What about the “Phase-1 RCT-181 expression (treatment/control)” value [1, 3] of the same molecule?
Answer: 0.6749

Question: What about the “Phase-1 RCT-185 expression (treatment/control)” value [1, 3] of the same molecule?
Answer: 0.5075 and 0.4368 and 0.3225

Question: And the “Phase-1 RCT-191 expression (treatment/control)” value [1, 3]?
Answer: 1.498 and 2.514

Question: And the “Phase-1 RCT-192 expression (treatment/control)” value [1, 3]?
Answer: 1.606 and 1.812

Question: And the “Phase-1 RCT-205 expression (treatment/control)” value [1, 3]?
Answer: 1.793

Question: What about the “Phase-1 RCT-213 expression (treatment/control)” value [1, 3] of the same molecule?
Answer: 1.607 and 2.134

Question: And the “Phase-1 RCT-214 expression (treatment/control)” value [1, 3]?
Answer: 0.7129 and 0.7249 and 0.4326

Question: What about the “Phase-1 RCT-242 expression (treatment/control)” value [1, 3] of the same molecule?
Answer: 1.936

Question: And the “Phase-1 RCT-258 expression (treatment/control)” value [1, 3]?
Answer: 1.198 and 1.289 and 1.628

Question: What about the “Phase-1 RCT-264 expression (treatment/control)” value [1, 3] of the same molecule?
Answer: 0.4839 and 0.3686

Question: And the “Phase-1 RCT-271 expression (treatment/control)” value [1, 3]?
Answer: 0.5952

Question: And the “Phase-1 RCT-295 expression (treatment/control)” value [1, 3]?
Answer: 1.409 and 1.586 and 1.993

Question: And the “Phase-1 RCT-296 expression (treatment/control)” value [1, 3]?
Answer: 0.4087 and 0.2215 and 0.347

Question: What about the “Pyruvate kinase, muscle expression (treatment/control)” value [1, 3] of the same molecule?
Answer: 1.015 and 0.9969 and 1.833

Question: And the “Ref-1 expression (treatment/control)” value [1, 3]?
Answer: 1.85 and 2.112 and 3.617

Question: What about the “Ribosomal protein L13A expression (treatment/control)” value [1, 3] of the same molecule?
Answer: 2.348 and 2.582

Question: And the “Ribosomal protein S8 expression (treatment/control)” value [1, 3]?
Answer: 1.864 and 2.055

Question: What about the “Sodium/bile acid cotransporter expression (treatment/control)” value [1, 3] of the same molecule?
Answer: 0.7685 and 0.5902 and 0.8858

Question: What about the “Superoxide dismutase Mn expression (treatment/control)” value [1, 3] of the same molecule?
Answer: 1.274 and 1.178 and 1.931

Question: What about the “T-cell cyclophilin expression (treatment/control)” value [1, 3] of the same molecule?
Answer: 0.8846 and 1.322 and 1.491

Question: What about the “Thymosin beta-10 expression (treatment/control)” value [1, 3] of the same molecule?
Answer: 1.285 and 1.383 and 1.788

Question: And the “Transthyretin expression (treatment/control)” value [1, 3]?
Answer: 0.427 and 0.4938 and 0.34

Question: And the “Ubiquitin conjugating enzyme (RAD 6 homologue) expression (treatment/control)” value [1, 3]?
Answer: 0.9549 and 1.282 and 1.558

Question: And the “Uncoupling protein 2 expression (treatment/control)” value [1, 3]?
Answer: 1.201 and 1.111 and 1.462

Question: What about the “c-H-ras expression (treatment/control)” value [1, 3] of the same molecule?
Answer: 1.118 and 1.069 and 0.9092

Question: What about the “p53 expression (treatment/control)” value [1, 3] of the same molecule?
Answer: 0.8979 and 1.176 and 1.584

Question: What about the “{Ribosomal protein L6} expression (treatment/control)” value [1, 3] of the same molecule?
Answer: 1.978 and 2.321

Question: What about the “Multidrug resistant protein-1 expression (treatment/control)” value ([1]; rat, in vivo) of the same molecule?
Answer: 1.241 and 1.202 and 1.889

Question: What about the “Paraoxonase 1 expression (treatment/control)” value ([1]; rat, in vivo) of the same molecule?
Answer: 0.5292 and 0.4965 and 0.3855

Question: What about the “Score (histopathology liver necrosis severity score)” value ([2]; in vivo, 250 mg/kg) of the same molecule?
Answer: 1

Question: And the “Score (histopathology liver necrosis severity score)” value ([2]; in vivo, 1000 mg/kg)?
Answer: 2

Question: And the “toxicity at the high dose” value ([2]; in vivo)?
Answer: produced toxicity

Question: What about the “Liver Necrosis” value ([2]; in vivo, 250 mg/kg) of the same molecule?
Answer: no

Question: And the “Liver Necrosis” value ([2]; in vivo, 1000 mg/kg)?
Answer: Yes

Question: What about the “toxicity at the low dose” value ([2]; low dose of Table 1, liver necrosis at 72 hours) of the same molecule?
Answer: not at the low dose
